# Results as given in PMC10717410, “TMC4 is a novel chloride channel involved in high-concentration salt taste sensation” (The Journal of Physiological Sciences : JPS, 2021).
# Structures can show the parent of a compound that is named as a salt.
# Columns and labels:
# Format in all cases: cell-based
# mouse TMC4 (mTMC4) [1] = target: T1, mouse TMC4 (mTMC4) (Mus musculus, UniProt Q7TQ65); experiment: whole-cell patch clamp, transfected HEK293T; conditions: pH 7.4 bath, pH 7.2 pipette, about 25 °C
# T1 construct: coding region from circumvallate papillae cDNA in pIRES2-AcGFP1 with IRES and GFP removed; transiently expressed in HEK293T with separate EGFP plasmid
# T1 sequence (Q7TQ65 1-694): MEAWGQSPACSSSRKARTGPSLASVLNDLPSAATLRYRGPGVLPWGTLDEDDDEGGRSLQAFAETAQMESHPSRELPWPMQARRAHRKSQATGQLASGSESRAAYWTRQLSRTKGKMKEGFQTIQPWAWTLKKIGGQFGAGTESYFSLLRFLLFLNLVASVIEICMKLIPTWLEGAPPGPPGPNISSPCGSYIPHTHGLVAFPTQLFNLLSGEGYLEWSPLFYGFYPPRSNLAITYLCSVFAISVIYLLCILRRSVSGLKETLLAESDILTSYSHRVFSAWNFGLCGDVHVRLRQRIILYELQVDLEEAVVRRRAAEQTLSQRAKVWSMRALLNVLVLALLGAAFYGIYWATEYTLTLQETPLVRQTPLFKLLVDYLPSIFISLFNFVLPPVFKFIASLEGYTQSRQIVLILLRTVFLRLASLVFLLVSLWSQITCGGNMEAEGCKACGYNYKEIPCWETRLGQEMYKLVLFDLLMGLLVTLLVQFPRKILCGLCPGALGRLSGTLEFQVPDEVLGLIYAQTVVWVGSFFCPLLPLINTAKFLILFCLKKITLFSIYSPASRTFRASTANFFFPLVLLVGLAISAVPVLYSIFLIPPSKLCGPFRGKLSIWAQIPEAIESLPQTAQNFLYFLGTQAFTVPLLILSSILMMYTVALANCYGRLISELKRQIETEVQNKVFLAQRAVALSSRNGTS
# human TMC4 (hTMC4) = target: T2, human TMC4 (hTMC4) (Homo sapiens, UniProt Q7Z404); experiment: whole-cell patch clamp, step pulses, transfected HEK293T; conditions: pH 7.4 bath, pH 7.2 pipette, about 25 °C; channel blocker
# T2 construct: coding region of purchased cDNA (Dharmacon) in pIRES2-AcGFP1 with IRES and GFP removed; transiently expressed in HEK293T
# T2 sequence (Q7Z404 1-712): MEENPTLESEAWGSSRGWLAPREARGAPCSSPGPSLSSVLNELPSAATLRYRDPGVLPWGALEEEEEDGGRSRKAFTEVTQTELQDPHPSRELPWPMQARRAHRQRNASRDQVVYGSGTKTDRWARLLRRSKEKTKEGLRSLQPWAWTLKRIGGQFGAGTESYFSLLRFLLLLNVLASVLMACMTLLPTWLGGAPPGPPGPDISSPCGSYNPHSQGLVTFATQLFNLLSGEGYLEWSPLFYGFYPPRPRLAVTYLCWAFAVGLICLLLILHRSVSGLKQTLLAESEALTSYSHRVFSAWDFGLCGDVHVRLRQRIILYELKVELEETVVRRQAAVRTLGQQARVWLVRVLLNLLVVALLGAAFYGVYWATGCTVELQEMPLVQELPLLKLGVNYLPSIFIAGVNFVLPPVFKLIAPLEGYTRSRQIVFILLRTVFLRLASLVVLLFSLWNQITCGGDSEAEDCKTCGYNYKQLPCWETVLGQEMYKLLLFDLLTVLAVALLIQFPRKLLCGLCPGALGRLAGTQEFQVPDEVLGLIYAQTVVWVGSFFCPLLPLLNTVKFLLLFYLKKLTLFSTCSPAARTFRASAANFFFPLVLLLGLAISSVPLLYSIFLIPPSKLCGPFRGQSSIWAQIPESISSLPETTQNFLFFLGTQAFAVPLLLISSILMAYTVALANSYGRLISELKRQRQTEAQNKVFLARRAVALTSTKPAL
# mouse TMC4 (mTMC4) [2] = target: T1, mouse TMC4 (mTMC4); experiment: as above; conditions: NMDG-Cl pipette, pH 7.4 bath, pH 7.2 pipette, about 25 °C, channel blocker
# mouse TMC4 (mTMC4) [3] = target: T1, mouse TMC4 (mTMC4); experiment: whole-cell patch clamp, bath chloride fully replaced by gluconate; conditions: permeating anion; NMDG-Cl pipette; pH 7.4 bath, about 25 °C
smiles,measurement,setting,value
CC(C)(C)C1CCc2c(sc(NC(=O)c3ccco3)c2C(=O)O)C1 (centres unmarked) [CaCC(inh)-A01],Iblocker/Icontrol at + 60 mV,mouse TMC4 (mTMC4) [1],mTMC4-mediated currents were inhibited by CaCC(inh)-A01
CNCCC(Oc1ccc(C(F)(F)F)cc1)c1ccccc1 (centres unmarked) [Fluoxetine hydrochloride],Iblocker/Icontrol at + 60 mV,mouse TMC4 (mTMC4) [1]; 100 μM compound,Fluoxetine hydrochloride and tannic acid also inhibited mTMC4-mediated currents
"O=C(O)c1cc([N+](=O)[O-])ccc1NCCCc1ccccc1 [NPPB, 5-nitro-2-(3-phenylpropylamino) benzoic acid]",current reduction,human TMC4 (hTMC4),hTMC4) also functions as a Cl^− channel with a similar voltage dependency and is inhibited by NPPB
same,Iblocker/Icontrol at + 60 mV,mouse TMC4 (mTMC4) [2],mTMC4-mediated currents were strongly inhibited by the NPPB
O=C(O)[C@H](O)[C@@H](O)[C@H](O)[C@H](O)CO [gluconate],"whole-cell patch clamp, bath chloride fully replaced by gluconate",mouse TMC4 (mTMC4) [3],outward currents did not disappear even when the bath solution was completely substituted with Na-gluconate
